This is an account of results in patent US20060177821A1, “Association of the h2 haplotype of the p2y12 receptor with an increased risk for thrombosis and peripheral arterial disease” (priority 2002, published 2006).

Each structure is given as a SMILES string. Read-outs that look alike come from different tables or passages of the source.

The subject of one experiment is platelets. In words: ADP-induced platelet aggregation in platelet-rich plasma (photometric aggregometry). Format: cell-based, human. The following applies: 2 μM ADP; for maximal aggregation: mean±SEM; for maximal aggregation in response to ADP (median): citrated PRP, average of visits 1 and 2. Here is the method: Venous blood was collected between 8:00 and 10:00 am, after an overnight fast, in tubes containing either 0.105 M sodium citrate (1 vol/9 vol) (BD Vacutainer®, Becton Dickinson, Le Pont de Claix, France) or 50 μg/mL lepirudine (Refludan®, Hoechst, Paris, France) using a 19-gauge needle and no tourniquet. The first 2 ml of blood was discarded. Platelet-rich plasma (PRP) was obtained by centrifugation at 1000 rpm for 10 min at room temperature. Autologous platelet-poor plasma, obtained by further centrifugation at 4000 rpm for 15 min, was used to adjust the platelet count of PRP to 250×10^9/L.
Aggregation studies were performed within 2 hours after blood collection. Aggregation was measured at 37° C. by using a photometric method on a four-channel aggregometer (Regulest® Amneville, France). A 280-μL aliquot of PRP was incubated for 3 min at 37° C. and then was stirred at 1100 rpm for 2 min before adding 20 μL of saline or ADP (Sigma-Aldrich, St Quentin Fallavier, France) at 1, 2 or 5 μM (final concentration). The platelet aggregation response was recorded for 5 min.

In experiment [1] the test system is iloprost-stimulated cAMP accumulation in platelets (P2Y12 regulation of adenylate cyclase). Put plainly: Inhibition by ADP of iloprost-stimulated cAMP accumulation in platelets (EIA). The following applies: Homo sapiens, Platelet, citrated PRP, read-out: inhibition of iloprost-stimulated cAMP formation; for inhibition at 1 µM: 1 μM ADP; for inhibition at 2 µM: 2 μM ADP; for inhibition at 5 µM: 5 μM ADP. Format: cell-based. As to the method: Platelet cAMP content was measured in 20 selected subjects by incubating 270 μL of PRP with 10 μL of a solution of the stable prostacyclin analog iloprost (20 μg/L, final concentration) (Ilomédine®, Schering-Plough) for 1 min, with stirring, then adding 20 μL of saline or ADP (1, 2 or 5 μM). The reaction was stopped 3 min later by adding 20 μL of 12% trichloroacetic acid. CAMP was then extracted and measured with an enzyme immunoassay (EIA) (Amersham, Pharmacia Biotech, Orsay, France) according to the manufacturer's instructions, without knowledge of the subject's P2Y12 genotype.

Setting [2] is: platelets from carriers of the H2 haplotype.
Where [3] appears, read: platelets from non carriers of the H2 haplotype.

As a reminder, the inhibition is the percentage by which the read-out fell short of the control. For the molecule `Nc1ncnc2c1ncn2[C@@H]1O[C@H](COP(=O)(O)OP(=O)(O)O)[C@@H](O)[C@H]1O` [ADP, adenosine 5′-diphosphate], the maximal aggregation in the experiment with platelets (citrate-anticoagulated PRP (low Ca++), 10 carriers of the H2 allele) is listed as 71.5%±5.2%; with platelets (citrate-anticoagulated PRP (low Ca++), 10 non carriers of the H2 allele) it was 50.7%±7.2%; in the experiment on platelets (hirudin-anticoagulated PRP (physiological Ca++), 10 carriers of the H2 allele), 53.8%±3.9%; in the experiment with platelets (hirudin-anticoagulated PRP (physiological Ca++), 10 non carriers of the H2 allele), 42.8%±3.4%. Also, the “maximal aggregation in response to ADP (median)” value is on record as 34.7% in the experiment with platelets (subjects carrying no H2 alleles (H1/H1, n=74)); 67.9% with platelets (subjects carrying one H2 allele (H1/H2, n=21)); 82.4% with platelets (subjects carrying two H2 alleles (H2/H2, n=3)). Also, the values for the inhibition at 1 µM in experiment [1] (setting [2]) and in experiment [1] (setting [3]) were 31% and 13%, respectively. The inhibition at 2 µM in experiment [1] (setting [2]) amounted to 39%; in experiment [1] (setting [3]) it was 31%. The inhibition at 5 µM turned out to be 50% in experiment [1] (setting [2]) and 37% in experiment [1] (setting [3]).
